Reference: patent US7718808B2, “Thiazole derivatives” (Kyowa Hakko Kirin Co., Ltd., priority 2003, dated 2010)

Experiments:
[1] = biological target: T1, Rat Adenosine A2A Receptor (Rattus norvegicus, UniProt P30543); test: Adenosine A2A receptor binding test (3H-CGS21680 binding, rat corpus striatum); conditions: test compound 10^−7 mol/L, 25° C., 120 minutes; for inhibition at 0.1 µM: read-out: Rat Adenosine A2A Receptor Binding Inhibition rate (%) (10^−7 mol/L)
T1 construct: tissue Nippon SLC (animals); host or cells: rat (SD) corpus striatum membrane homogenate
Protocol: This test was carried but in a similar manner to a Bruns et al's method (Molecular Pharmacology, Vol. 29, p. 331, 1986).
Corpus striatum of rats (SD rat, by Nippon SLC) was suspended in 50 mL of an ice-cooled 50 mmol/L tris(hydroxymethyl)aminomethane hydrochloride (Tris-HCl) buffer (pH 7.7) using a polytron homogenizer (by Kinematica). The resulting homogenate was centrifuged (48,000×g, 20 minutes), and the resulting precipitate was again suspended by adding the same amount of a 50 mmol/L Tris-HCl buffer, followed by centrifugation under the same condition. The resulting final precipitate was suspended by adding a 50 mmol/L Tris-HCl buffer [containing 10 mmol/L magnesium chloride, adenosine deaminase 0.02 units/mg tissue (by Sigma)] so that the tissue concentration was 5 mg (wet weight)/mL.
To 100 μL of the above purified tissue suspension, were added 80 μL (final concentration […]) of tritium-labeled CGS-21680 {^3H-2-[p-(2-carboxyethyl)phenethylamino]-5′-(N-ethylcarboxamido)-adenosine: 40 curies/mmol; by New England Nuclear [The Journal of Pharmacology and Experimental Therapeutics, Vol. 251, p. 888, 1989]} and 20 μL of a test compound solution (10^−7 mol/L; a solution of a test compound in DMSO was diluted with Tris-HCl buffer). The resulting mixture was allowed to stand at 25° C. for 120 minutes, followed by rapid suction filtration through a glass fiber paper filter (GF/C; by Whatman). The filter was immediately washed three times with 200 μL of an ice-cooled 50 mmol/L Tris-HCl buffer. The glass fiber paper filter was transferred into a vial, Microscinti (by Perkin Elmer) was added thereto, and the radioactivity level was measured with Topcount (by Perkin Elmer).
The inhibition rate of the test compound to the adenosine A2A receptor binding (^3H-CGS21680 binding) was calculated according to the following formula.
Amount of total binding means the ^3H-CGS21680 binding radioactivity content in the absence of the test compound. Amount of non-specific binding means the ^3H-CGS21680 binding radioactivity content in the presence of 100 μmol/L cyclopentyladenosine (CPA; by Sigma). Amount of binding in the presence of test compound means the ^3H-CGS21680 binding radioactivity content in the presence of 10^−7 mol/L of the test compound.

T1 sequence (P30543 whole entry): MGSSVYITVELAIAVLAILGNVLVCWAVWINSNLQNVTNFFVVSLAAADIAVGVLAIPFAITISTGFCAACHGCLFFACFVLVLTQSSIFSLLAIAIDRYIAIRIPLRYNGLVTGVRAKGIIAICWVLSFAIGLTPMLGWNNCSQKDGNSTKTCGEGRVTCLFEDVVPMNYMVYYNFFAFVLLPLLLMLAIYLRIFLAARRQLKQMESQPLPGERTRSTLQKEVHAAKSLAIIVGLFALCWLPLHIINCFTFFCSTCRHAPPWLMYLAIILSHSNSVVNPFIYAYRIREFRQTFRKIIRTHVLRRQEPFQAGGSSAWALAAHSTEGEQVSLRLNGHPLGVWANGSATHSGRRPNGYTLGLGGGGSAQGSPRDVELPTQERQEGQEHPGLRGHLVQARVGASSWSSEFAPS

inhibition at 0.1 µM [1] | melting point | Compound | Rat Adenosine A2A Receptor Binding Inhibition rate (%) (10^−7 mol/L) [1]
100% |  | O=C(Nc1nc(-c2ccco2)c(-c2ccncc2)s1)c1ccc(O)nc1 [Compound 11, N-[4-(2-Furyl)-5-(4-pyridyl)thiazol-2-yl]-2-hydroxypyridine-5-carboxamide] | 
90% |  | O=C(Nc1nc(-c2ccco2)c(-c2ccncc2)s1)c1ccc(Cn2ccnc2)cc1 [Compound 19, N-[4-(2-Furyl)-5-(4-pyridyl)thiazol-2-yl]-4-(imidazol-1-ylmethyl)benzamide] | 
85% |  | O=C(Nc1nc(-c2ccco2)c(Cc2ccccc2)s1)c1ccncc1 [Compound 23, N-[5-Benzyl-4-(2-furyl)thiazol-2-yl]pyridine-4-carboxamide] | 
88% |  | CCOC(=O)c1sc(NC(=O)c2ccncc2)nc1-c1ccco1 [Compound 24, N-(5-(Ethoxycarbonyl)-4-(2-furyl)thiazol-2-yl]pyridine-4-carboxamide] | 
100% |  | O=C(Nc1nc(-c2ccco2)c(CN2CCSCC2)s1)c1ccncc1 [Compound 87, N-[4-(2-Furyl)-5-(thiomorpholinomethyl)thiazol-2-yl]pyridine-4-carboxamide] | 
98% |  | O=C(Nc1nc(-c2ccco2)c(C(=O)c2ccccc2)s1)c1ccncc1 [Compound 99, N-[5-Benzoyl-4-(2-furyl)thiazol-2-yl]pyridine-4-carboxamide] | 
99% | 190 to 194 °C | CC(C)n1nc(-c2sc(NC(=O)c3ccncc3)nc2-c2ccco2)ccc1=O [Compound 131, N-[4-(2-Furyl)-5-(1-isopropyl-6-oxo-1,6-dihydropyridazin-3-yl)thiazol-2-yl]pyridine-4-carboxamide] | 
91% | > 300 °C | O=C(Nc1nc(-c2ccco2)c(C(=O)c2ccccc2)s1)c1ccc(=O)[nH]c1 [Compound 149, N-[5-Benzoyl-4-(2-furyl)thiazol-2-yl]-2-oxo-1,2-dihydropyridine-5-carboxamide] | 
87% |  | O=C(Nc1nc(-c2ccco2)c(C(=O)c2ccc(F)cc2)s1)c1ccncc1 [Compound 170, N-[5-(4-Fluorobenzoyl)-4-(2-furyl)thiazol-2-yl]pyridine-4-carboxamide] | 
86% | 218 to 227 °C | O=C(Nc1nc(-c2ccco2)c(C(=O)c2ccccn2)s1)c1ccncc1 [Compound 187, N-[4-(2-Furyl)-5-(pyridin-2-ylcarbonyl)thiazol-2-yl]pyridine-4-carboxamide] | 
98% | 191 to 192 °C | O=C(c1ccccn1)c1sc(NC(=O)C2CC2)nc1-c1ccco1 [Compound 191, N-[4-(2-Furyl)-5-(pyridin-2-ylcarbonyl)thiazol-2-yl]cyclopropanecarboxamide] | 
95% | 232 to 235 °C | N#Cc1ccc(C(=O)Nc2nc(-c3ccco3)c(C(=O)c3ccccn3)s2)cc1 [Compound 206, 4-Cyano-N-[4-(2-furyl)-5-(pyridin-2-ylcarbonyl)thiazol-2-yl]benzamide] | 
100% | 184 to 185 °C | O=C(Nc1nc(-c2ccco2)c(C(=O)c2ccccn2)s1)c1ccco1 [Compound 234, N-[4-(2-Furyl)-5-(pyridin-2-ylcarbonyl)thiazol-2-yl]furan-2-carboxamide] | 
85% |  | COC(=O)Nc1nc(-c2ccco2)c(C(=O)c2ccccn2)s1 [Compound 249, Methyl N-[4-(2-furyl)-5-(pyridin-2-ylcarbonyl)thiazol-2-yl]carbamate] | 
100% | 228 to 240 °C | O=C(Nc1nc(-c2ccco2)c(C(=O)c2nccs2)s1)c1ccncc1 [Compound 348, N-[4-(2-Furyl)-5-(thiazol-2-ylcarbonyl)thiazol-2-yl]pyridine-4-carboxamide] | 
100% | 202 to 209 °C | O=C(Nc1nc(-c2ccco2)c(C(=O)C2CCOCC2)s1)c1ccncc1 [Compound 455, N-[4-(2-Furyl)-5-(tetrahydropyran-4-ylcarbonyl)thiazol-2-yl]pyridine-4-carboxamide] | 

The next lines start with the compound.

Compound | inhibition at 0.1 µM [1] | melting point | Rat Adenosine A2A Receptor Binding Inhibition rate (%) (10^−7 mol/L) [1]
CN1CCN(c2cc(C(=O)Nc3nc(-c4ccco4)c(N4CCOCC4)s3)ccn2)CC1 [Compound 41, N-[4-(2-Furyl)-5-morpholinothiazol-2-yl]-2-(4-methylpiperazin-1-yl)pyridine-4-carboxamide] | 92% |  | 
CS(=O)(=O)c1ccc(N2CCC(C(=O)Nc3nc(-c4ccco4)c(N4CCOCC4)s3)CC2)nc1 [Compound 46, N-[4-(2-Furyl)-5-morpholinothiazol-2-yl]-1-[5-(methanesulfonyl)pyridin-2-yl]piperidine-4-carboxamide] | 95% |  | 
O=C(Nc1nc(-c2ccco2)c(CN2CCOCC2)s1)c1cccnc1 [Compound 94, N-[4-(2-Furyl)-5-(morpholinomethyl)thiazol-2-yl]pyridine-3-carboxamide] | 100% |  | 
Cc1ncc(C(=O)Nc2nc(-c3ccco3)c(C(=O)c3ccccn3)s2)cn1 [Compound 228] |  |  | 84%
O=C(Nc1nc(-c2ccco2)c(C(=O)C2CCCC2)s1)c1ccncc1 [Compound 431, N-[5-(Cycolopentylcarbonyl)-4-(2-furyl)thiazol-2-yl]-pyridine-4-carboxamide] |  |  | 98%
O=C(Nc1nc(-c2ccco2)c(C(=O)C2CCOCC2)s1)C1CC1 [Compound 456, N-[4-(2-Furyl)-5-(tetrahydropyran-4-ylcarbonyl)thiazol-2-yl]cyclopropanecarboxamide] | 94% | 182 to 183 °C | 
COc1cccc(C(=O)Nc2nc(-c3ccco3)c(C(=O)C3CCOCC3)s2)c1 [Compound 462, N-[4-(2-Furyl)-5-(tetrahydropyran-4-ylcarbonyl)thiazol-2-yl]-3-methoxybenzamide] | 99% | 198 to 200 °C | 
O=C(Nc1nc(-c2ccco2)c(C(=O)C2CCOCC2)s1)c1ccc(F)cc1 [Compound 468, 4-Fluoro-N-[4-(2-furyl)-5-(tetrahydropyran-4-ylcarbonyl)thiazol-2-yl]benzamide] | 93% | 131 to 132 °C | 
O=C(Nc1nc(-c2ccco2)c(C(=O)C2CCOCC2)s1)c1ccc(Cl)nc1 [Compound 502, 2-Chloro-N-[4-(2-furyl)-5-(tetrahydropyran-4-ylcarbonyl)thiazol-2-yl]pyridine-5-carboxamide] | 90% | 233 to 235 °C | 
Cc1ccc(C(=O)Nc2nc(-c3ccco3)c(C(=O)C3CCOCC3)s2)cn1 [Compound 504, N-[4-(2-Furyl)-5-(tetrahydropyran-4-ylcarbonyl)thiazol-2-yl]-2-methylpyridine-5-carboxamide] | 100% |  | 
O=C(Nc1nc(-c2ccco2)c(C(=O)C2CCOCC2)s1)c1ccco1 [Compound 511, N-[4-(2-Furyl)-5-(tetrahydropyran-4-ylcarbonyl)thiazol-2-yl]furan-2-carboxamide] | 88% | 196 to 198 °C | 
N#Cc1ccc(C(=O)Nc2nc(-c3ccco3)c(C(=O)C3CCOCC3)s2)o1 [Compound 515, 5-Cyano-N-[4-(2-furyl)-5-(tetrahydropyran-4-ylcarbonyl)thiazol-2-yl]furan-2-carboxamide] | 95% | 222 to 223 °C | 
O=C(CN1CCOCC1)Nc1nc(-c2ccco2)c(C(=O)C2CCOCC2)s1 [Compound 558, N-[4-(2-Furyl)-5-(tetrahydropyran-4-ylcarbonyl)thiazol-2-yl]-2-morpholinoacetamide] | 92% |  | 
